Laboratory results taken from the supplement of paper PMC10721915.
± gives the standard deviation of the averaged measurements.

Compound: COc1ccc([C@@H](O)c2cc(-c3ncnc4cc(N5CCOCC5)ccc34)c(F)cc2Cl)nn1 [peposertib]
Assay: relative cell growth vs untreated control (GI, NCI-DTP normalisation with time-zero) (fraction of control growth); higher = more growth / less inhibition
Conditions: treatment time: 120 h
Method: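 Cancer cell lines were treated with peposertib (DNA-PK inhibitor) combined with gamma ionizing radiation (0, 2, 3 or 6 Gy) for 120 h, starting 48 h after seeding. Read-out was sulforhodamine B total-protein staining, normalised to untreated control and time-zero wells (NCI-DTP GI convention).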

[1] = peposertib concentration 0.00488 µM, gamma irradiation dose (Gy): 0
[2] = peposertib concentration 0.00488 µM, gamma irradiation dose (Gy): 3
[3] = peposertib concentration 0.0195 µM, gamma irradiation dose (Gy): 0
[4] = peposertib concentration 0.0195 µM, gamma irradiation dose (Gy): 3
[5] = peposertib concentration 0.0781 µM, gamma irradiation dose (Gy): 0
[6] = peposertib concentration 0.0781 µM, gamma irradiation dose (Gy): 3
[7] = peposertib concentration 0.313 µM, gamma irradiation dose (Gy): 0
[8] = peposertib concentration 0.313 µM, gamma irradiation dose (Gy): 3
[9] = peposertib concentration 1.25 µM, gamma irradiation dose (Gy): 0
[10] = peposertib concentration 1.25 µM, gamma irradiation dose (Gy): 3
[11] = peposertib concentration 5 µM, gamma irradiation dose (Gy): 0
[12] = peposertib concentration 5 µM, gamma irradiation dose (Gy): 3

Test System	relative cell growth [1]	relative cell growth [2]	relative cell growth [3]	relative cell growth [4]	relative cell growth [5]	relative cell growth [6]	relative cell growth [7]	relative cell growth [8]	relative cell growth [9]	relative cell growth [10]	relative cell growth [11]	relative cell growth [12]
HCT15	0.998 ± 0.048	0.555	0.896 ± 0.056	0.482	1.002 ± 0.0063	0.298	0.964 ± 0.028	0.147	0.792 ± 0.062	0.0634	0.301 ± 0.074	0.0278
CACO2	0.994 ± 0.066	0.722	0.959 ± 0.018	0.713	0.92 ± 0.033	0.595	0.85 ± 0.0095	0.322	0.644 ± 0.03	0.195	0.238 ± 0.01	0.098
PC3	1.04		1		0.971		0.781		0.532		0.262	
MHHES1	0.994		0.99		0.974		0.915		0.776		0.458	
MIAPACA2	1.05 ± 0.024	0.592	1.07 ± 0.072	0.546	1.01 ± 0.022	0.286	0.991 ± 0.07	0.086	0.891 ± 0.18	0.0368	0.611 ± 0.18	0.0246
EFO21	1.05		1.04		0.909		0.667		0.352		0.141	
JIMT1	0.999		1.01		0.999		0.906		0.561		0.232	
T24	1.01		0.992		0.979		0.927		0.838		0.748	
U2OS	1.05		1.04		1		0.966		0.815		0.529	
DU145	0.999		0.996		0.96		0.874		0.618		0.287	
SKBR3	0.938		1.03		1.03		0.89		0.523		0.0447	
COLO205	0.984 ± 0.071	0.413	0.996 ± 0.039	0.367	1.01 ± 0.044	0.203	0.969 ± 0.029	0.0736	0.7949 ± 0.007	0.0589	0.351 ± 0.04	0.0686
EJ28	1.05		1.02		1.02		0.945		0.824		0.554	
NCIH292	0.959 ± 0.031	0.526	1.017 ± 0.0086	0.511	0.924 ± 0.039	0.357	0.684 ± 0.078	0.21	0.33 ± 0.064	0.0579	0.00769 ± 0.042	-0.0162
THP1	0.988		0.968		0.887		0.721		0.436		0.148	
SF268	1.01		0.994		0.943		0.867		0.747		0.516	
ASPC1	1.1		0.966		1		0.891		0.67		0.22	
SF295	1.03		1.01		0.992		0.945		0.54		0.209	
MDAMB231	1.11		1.1		1.06		1.04		0.995		0.84	
RDES	0.935		0.961		0.971		0.785		0.57		0.24	
BXPC3	0.935		0.946		0.903		0.789		0.437		0.137	
HS578T	1.01		1.01		1.02		0.947		0.581		0.182	
TE671	0.999		0.999		0.989		0.929		0.736		0.243	
KASUMI1	0.984		0.968		0.859		0.577		0.181		-0.0751	
